Results from patent US11866416B2, “Streptococcus mutans glucosyl transferase inhibitors for dental caries therapy” (UAB Research Foundation, priority 2018, dated 2024).
Where two headings read alike, the source gives them in different places.

Assays:
GtfC catalytic domain = GtfC catalytic domain (Streptococcus mutans serotype c (strain ATCC 700610 / UA159), UniProt P13470); test: OctetRed96 binding kinetics, GtfC
Text: To determine if the inhibition is attributed by the binding of the lead compound to the enzymes, the OctetRed96 system was used to characterize protein-small molecule binding kinetics. The his-tagged catalytic domains of GtfB and GtC were immobilized separately onto an anti-penta-HIS (HIS1K) biosensor which consists of high affinity, high specificity penta-his antibody pre-immobilized on a fiber optic biosensor. This sensor was then exposed to varying concentrations of #G43.
Expression and purification of GtfB and GtfC catalytic domains. The DNA fragment coding for either GtfB catalytic (residues 268 aa-1074 aa) or GtfC-catalytic (residues 295 aa-1103 aa) was PCR amplified with primer sets of GtfB-BamH1-F and GtfB-Xho1-R, GtfC-BamH1-F and GtfC-Xhol1-R respectively using S. mutans genomic DNA as a template. Each amplified fragment was cloned into pET-sumo vector respectively and transformed in Escherichia coli BL21(DE3). […]
Octet Red analysis. […] The rate constant, KD, was determined using the Octet® Red96 system (ForteBio, Menlo Park, Calif.). […] The proteins were captured on dip-and-read Anti-Penta-HIS (HIS1K) Biosensor. […] The binding of #G43 at 3-fold serial dilutions in phosphate buffer from 200, 66.6, 22.2, 7.4, 2.5 to 0 μM was assessed. […]
OctetRed analysis. […] Sensorgrams and the accuracy of the analysis was calculated using the ForteBio OctetRed analysis software (ForteBio, Menlo Park, Calif.).

S. mutans biofilm = S. mutans biofilm formation and inhibition assay (96-well plates, crystal violet); assay type: cell-based, Streptococcus mutans; settings: for IC50: Streptococcus mutans
GtfB = GtfB (Streptococcus mutans serotype c (strain ATCC 700610 / UA159), UniProt P08987); test: Zymographic assay on GtfB from S. mutans GtfCD mutants; assay type: biochemical; settings: 25 μM
Protocol: FIGS. 3A-3C show Gtf patterns of S. mutans UA159 and its mutant variants. Culture supernatants were prepared from S. mutans UA159 and gtf double mutants, and then subjected to SDS-PAGE analysis with equivalent amount of proteins in each lane. […] The intensity of the bands were quantified using ImageJ in comparison to DMSO.
Supernatants containing Gtf proteins prepared from S. mutans bacterial cultures were subjected to SDS-PAGE analysis and zymographic assay. […] The same amount of the protein sample was used as controls and visualized by protein staining (FIG. 3A, top panels). The lead compounds were also tested against individual Gtfs using supernatant proteins harvested from cultures of various double mutants.
Construction of S. mutans Gtfs mutants. GtfB, GtfC single mutant, and GtfBC double mutant in which gtf was replaced with a kanamycin resistance cassette, aphA3 (encoding an aminoglycoside phosphotransferase), were gifts from Dr. Robert Burne's Laboratory, University of Florida, Gainesville, Fla. The GtfD mutant was constructed by an overlapping PCR ligation strategy using an erythromycin resistance cassette isolated from the IFDC2 cassette (Xie, Z., Okinaga, T., Qi, F., Zhang, Z. & Merritt, J. Cloning-independent and counterselectable markerless mutagenesis system in Streptococcus mutans. Appl Environ Microbiol 77, 8025-8033 (2011)).

gtfs expression = test: Real time RT-PCR of gtfs expression; assay type: cell-based, Streptococcus mutans; settings: S. mutans UA159, different concentrations, calibrated by 16S rRNA
Protocol: The expression of gtfs was examined by real time RT-PCR. The mRNA expression levels were calibrated by 16S rRNA. Values represent the means±standard deviations from three independent experiments. […] The P value>0.05 is considered to be not significant.
The effect of this potent small molecule on the gene expression of gtfs was also examined. The relative expression level of gtfs was evaluated by real time RT-PCR.

Chain of GtfC catalytic domain (P13470 295-1103 limits assumed): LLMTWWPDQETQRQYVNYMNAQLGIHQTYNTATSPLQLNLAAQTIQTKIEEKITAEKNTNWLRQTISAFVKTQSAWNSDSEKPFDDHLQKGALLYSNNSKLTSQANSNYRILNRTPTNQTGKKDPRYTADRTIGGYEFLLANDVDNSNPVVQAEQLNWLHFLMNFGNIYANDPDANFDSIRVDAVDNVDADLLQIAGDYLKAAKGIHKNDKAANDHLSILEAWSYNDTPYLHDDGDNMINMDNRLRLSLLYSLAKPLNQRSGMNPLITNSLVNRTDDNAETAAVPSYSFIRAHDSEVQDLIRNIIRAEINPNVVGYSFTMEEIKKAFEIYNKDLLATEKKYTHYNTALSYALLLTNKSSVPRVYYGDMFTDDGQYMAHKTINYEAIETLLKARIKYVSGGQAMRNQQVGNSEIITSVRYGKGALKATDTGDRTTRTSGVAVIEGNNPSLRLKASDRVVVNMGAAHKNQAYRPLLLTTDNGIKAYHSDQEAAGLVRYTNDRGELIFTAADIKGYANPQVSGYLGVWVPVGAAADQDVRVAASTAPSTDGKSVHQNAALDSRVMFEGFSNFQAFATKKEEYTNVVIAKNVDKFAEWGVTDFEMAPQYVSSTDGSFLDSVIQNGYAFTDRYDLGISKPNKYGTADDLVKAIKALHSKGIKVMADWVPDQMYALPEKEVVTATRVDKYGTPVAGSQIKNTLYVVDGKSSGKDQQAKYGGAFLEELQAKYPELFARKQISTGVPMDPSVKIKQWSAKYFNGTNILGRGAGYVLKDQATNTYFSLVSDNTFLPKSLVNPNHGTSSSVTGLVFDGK
Chain of GtfB (P08987 35-1476 limits assumed): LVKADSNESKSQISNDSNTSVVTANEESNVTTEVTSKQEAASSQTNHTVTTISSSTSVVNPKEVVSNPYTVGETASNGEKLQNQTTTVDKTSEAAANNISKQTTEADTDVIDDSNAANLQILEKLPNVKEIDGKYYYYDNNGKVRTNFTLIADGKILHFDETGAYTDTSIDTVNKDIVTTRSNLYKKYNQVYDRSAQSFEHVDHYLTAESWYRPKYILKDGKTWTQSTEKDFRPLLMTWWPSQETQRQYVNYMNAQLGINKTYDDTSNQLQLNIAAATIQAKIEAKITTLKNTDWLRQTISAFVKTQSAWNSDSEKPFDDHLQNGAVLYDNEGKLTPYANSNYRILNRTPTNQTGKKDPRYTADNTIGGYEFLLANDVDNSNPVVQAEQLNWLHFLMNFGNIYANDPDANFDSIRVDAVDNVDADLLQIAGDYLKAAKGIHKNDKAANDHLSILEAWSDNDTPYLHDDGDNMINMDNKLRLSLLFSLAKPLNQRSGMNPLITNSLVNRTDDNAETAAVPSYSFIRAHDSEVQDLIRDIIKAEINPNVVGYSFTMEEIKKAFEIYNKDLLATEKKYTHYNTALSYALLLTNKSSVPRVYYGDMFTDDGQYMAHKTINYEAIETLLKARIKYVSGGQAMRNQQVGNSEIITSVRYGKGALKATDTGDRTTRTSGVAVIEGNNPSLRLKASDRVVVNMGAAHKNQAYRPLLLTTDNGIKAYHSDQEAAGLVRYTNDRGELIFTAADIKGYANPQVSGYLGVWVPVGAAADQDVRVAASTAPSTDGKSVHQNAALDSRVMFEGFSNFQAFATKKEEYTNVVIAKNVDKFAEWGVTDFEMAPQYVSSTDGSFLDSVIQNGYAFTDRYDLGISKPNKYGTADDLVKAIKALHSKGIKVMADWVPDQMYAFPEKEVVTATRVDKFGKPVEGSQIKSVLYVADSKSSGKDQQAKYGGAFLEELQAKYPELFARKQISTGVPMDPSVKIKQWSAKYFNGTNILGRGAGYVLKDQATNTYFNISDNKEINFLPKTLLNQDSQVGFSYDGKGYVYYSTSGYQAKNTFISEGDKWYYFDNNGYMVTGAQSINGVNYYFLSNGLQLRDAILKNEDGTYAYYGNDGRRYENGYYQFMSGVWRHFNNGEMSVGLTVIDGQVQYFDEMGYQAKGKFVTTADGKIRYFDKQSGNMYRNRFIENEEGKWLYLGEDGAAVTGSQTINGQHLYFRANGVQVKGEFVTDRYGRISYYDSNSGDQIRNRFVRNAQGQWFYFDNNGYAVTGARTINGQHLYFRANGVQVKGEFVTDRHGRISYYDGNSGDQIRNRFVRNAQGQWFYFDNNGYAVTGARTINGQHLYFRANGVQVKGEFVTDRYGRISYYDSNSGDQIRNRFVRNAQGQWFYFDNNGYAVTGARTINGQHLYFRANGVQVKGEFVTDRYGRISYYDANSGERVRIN

**Q.** `Oc1ccc(/C=C/c2cc(O)cc(O)c2)cc1` [Resveratrol, reference compound] was tested. Which Kd (GtfC catalytic domain; stilbenes, 1:1 binding mode) did it give?
**A.** 510 µM

**Q.** Which results are given for `NC(=O)c1ccccc1NC(=O)c1cc2cc([N+](=O)[O-])ccc2s1` [#G43]?
**A.** inhibition of S. mutans biofilms at 12.5 μM (S. mutans biofilm; 12.5 μM, crystal violet assay): more than 85%; inhibition of GtfB activity (ImageJ band intensity) (GtfB): 80%; Kd (GtfC catalytic domain; 1:1 binding model): 0.0469 µM; expression of gtfs versus DMSO (gtfs expression): no significant difference was observed

**Q.** What does the source list for `Oc1cc(O)cc(/C=C/c2ccc(O)c(O)c2)c1` [Piceatannol]?
**A.** IC50 (S. mutans biofilm; Table 3, read-out: Biofilm Inhibition IC50): 52 ± 6 µM; IC50 (S. mutans biofilm; Table 4, stilbenes, NI = no inhibition, read-out: Biofilm IC50): 52 ± 6 µM; IC50 (S. mutans biofilm; Table 8, stilbenes, NI = no inhibition, read-out: Biofilm IC50): 52 ± 6 µM; IC50 (S. mutans biofilm; read-out: S. mutans biofilm IC50): 52 µM
